This is an account of results in the Kinase Knowledgebase extract (Sharma et al. 2016).

Assay [1] has as its target CDK2 (UniProt P24941). Put plainly: Enzyme Assay.
In assay [2] the target is CDK2 (UniProt P24941).
The next assay has as its target MAPK14 (UniProt Q16539). Put plainly: SAPK2-alpha Kinase Inhibition.

Sequence of MAPK14 (Q16539 whole entry, looked up): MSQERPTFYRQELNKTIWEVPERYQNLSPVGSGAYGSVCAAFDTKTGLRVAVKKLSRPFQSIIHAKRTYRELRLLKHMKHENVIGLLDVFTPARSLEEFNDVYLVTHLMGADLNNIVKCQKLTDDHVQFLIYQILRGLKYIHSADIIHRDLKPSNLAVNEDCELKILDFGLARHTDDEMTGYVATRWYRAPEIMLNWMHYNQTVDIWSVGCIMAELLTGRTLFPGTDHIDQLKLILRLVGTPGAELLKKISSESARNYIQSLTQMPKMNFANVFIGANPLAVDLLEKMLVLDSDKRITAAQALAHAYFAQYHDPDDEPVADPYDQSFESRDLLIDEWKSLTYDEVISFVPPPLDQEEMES

As usually defined, the IC50 is the concentration that inhibits the measured activity by half. A low value points to higher potency. As to `CNc1nc(C)c(-c2ccnc(Nc3cccc(F)c3)n2)s1`, on CDK2 [1], the IC50 came out at 600 nM.

The compound `Cc1nc(C)c(-c2ccnc(Nc3cccc(NC(=N)N)c3)n2)s1` displayed an IC50 against CDK2 [1] of 1400 nM. This IC50 lies about 2.3-fold higher than the previous one.

On CDK2 [1], `COC(=O)c1cc(Nc2nccc(-c3sc(C)nc3C)n2)ccc1Cl` came in with an IC50 of 1100 nM.

Compound `COCCOC(=O)c1cc(Nc2nccc(-c3sc(C)nc3C)n2)ccc1F` came in with an IC50 against CDK2 [1] of 600 nM.

`Cc1nc(C)c(-c2ccnc(Nc3ccc(Cl)cc3)n2)s1`: the IC50 is 9 µM against CDK2 [2] and above 20 µM against MAPK14.

As to `Cc1nc(C)c(-c2ccnc(Nc3cccc([N+](=O)[O-])c3)n2)s1`, the IC50 on MAPK14 is above 20 µM.

`Cc1nc(C)c(-c2ccnc(Nc3ccc(F)cc3)n2)s1` returned an IC50 on MAPK14 above 20 µM.

On CDK2 [1], `CNc1nc(C)c(-c2ccnc(Nc3cc(F)cc(F)c3)n2)s1` gave an IC50 of 2000 nM.

In turn, `CNc1nc(C)c(-c2ccnc(Nc3ccc(OC)cc3)n2)s1` had an IC50 at CDK2 [1] of 800 nM. This IC50 lies about 2.5-fold lower than the previous one.

In turn, `CNc1nc(C)c(-c2ccnc(Nc3ccc(Cl)c(C(F)(F)F)c3)n2)s1` came in with an IC50 against CDK2 [1] of 10000 nM.

At CDK2 [1], `Cc1nc(C)c(-c2ccnc(Nc3ccc([N+](C)(C)C)cc3)n2)s1` gave an IC50 of 1500 nM.

As to `CNc1nc(C)c(-c2ccnc(Nc3cccc(Cl)c3)n2)s1`, on CDK2 [1], the IC50 came out at 3000 nM.

Regarding `CNc1nc(C)c(-c2ccnc(Nc3ccc(F)c(F)c3)n2)s1`, at CDK2 [1], the IC50 was 1200 nM.

`Cc1nc(C)c(-c2ccnc(Nc3ccc(Cc4ccncc4)cc3)n2)s1` yielded an IC50 against CDK2 [1] of 700 nM.

`COc1ccc(Nc2nccc(-c3sc(C)nc3C)n2)c(O)c1` gave an IC50 at CDK2 [1] of 600 nM.
